Assay results from PubChem BioAssay AID256 (DTP/NCI, 2004).
“And” between values parts separate entries of the source, which are not always exact repeats. Identical values can stand only once. Toxic doses and inconclusive results are not listed.

System: CD2F1 mice, L1210 leukemia ip, survival T/C
Assay: NCI In Vivo Anticancer Drug Screen. Data for tumor model L1210 Leukemia (intraperitoneal) in CD2F1 (CDF1) mice
Conditions: higher = longer survival
Method in brief: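 Implant tumor; dose compound or vehicle; measure endpoint in both groups; report treated divided by control.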

[1] = endpoint: mean survival time, dose: 100.0 mg/kg/injection, schedule: Q01DX009 (ip), vehicle: Klucel (hydroxypropylcellulose) (HPC)
[2] = endpoint: mean survival time, dose: 200.0 mg/kg/injection, schedule: Q01DX009 (ip), vehicle: Klucel (hydroxypropylcellulose) (HPC)
[3] = endpoint: mean survival time, dose: 100.0 mg/kg/injection, schedule: Q01DX009 (ip), vehicle: saline with Tween-80
[4] = endpoint: mean survival time, dose: 100.0 mg/kg/injection, schedule: Q04DX003 (ip), vehicle: saline with Tween-80
[5] = endpoint: mean survival time, dose: 200.0 mg/kg/injection, schedule: Q01DX009 (ip), vehicle: saline with Tween-80
[6] = endpoint: mean survival time, dose: 200.0 mg/kg/injection, schedule: Q04DX003 (ip), vehicle: saline with Tween-80
[7] = endpoint: mean survival time, dose: 400.0 mg/kg/injection, schedule: Q01DX009 (ip), vehicle: saline with Tween-80
[8] = endpoint: mean survival time, dose: 400.0 mg/kg/injection, schedule: Q04DX003 (ip), vehicle: saline with Tween-80
[9] = endpoint: mean survival time, dose: 50.0 mg/kg/injection, schedule: Q01DX009 (ip), vehicle: saline with Tween-80
[10] = endpoint: mean survival time, dose: 0.5 mg/kg/injection, schedule: Q01DX009 (ip), vehicle: saline
[11] = endpoint: mean survival time, dose: 1.0 mg/kg/injection, schedule: Q01DX009 (ip), vehicle: saline

Cc1cc(NC(=O)CCc2ccc(N)cc2)ccc1S(=O)(=O)F
T/C (endpoint: mean survival time, dose: 25.0 mg/kg/injection, schedule: Q01DX009 (ip), vehicle: Klucel (hydroxypropylcellulose) (HPC)): 110 % of control
T/C (endpoint: mean survival time, dose: 50.0 mg/kg/injection, schedule: Q01DX009 (ip), vehicle: Klucel (hydroxypropylcellulose) (HPC)): 98 % of control
T/C [1]: 108 % of control
T/C [2]: 94 % of control and 106 % of control

O=C(O)CNC(=O)COc1ccccc1
T/C [3]: 101 % of control
T/C [4]: 101 % of control
T/C [5]: 88 % of control
T/C [6]: 93 % of control
T/C [7]: 90 % of control
T/C [8]: 101 % of control

N#CC(OC(=O)c1ccccc1)c1cccc([N+](=O)[O-])c1 (stereo not drawn)
T/C [3]: 98 % of control
T/C [4]: 101 % of control
T/C [5]: 96 % of control
T/C [6]: 96 % of control
T/C [8]: 100 % of control

O=C(O)c1cc([N+](=O)[O-])cc([N+](=O)[O-])c1
T/C [4]: 97 % of control
T/C [6]: 97 % of control
T/C [8]: 101 % of control

NC(=O)c1cc(Cl)nc2nc(Cl)nc(N)c12
T/C (endpoint: median survival time, dose: 25.0 mg/kg/injection, schedule: Q01DX009 (ip), vehicle: saline with Tween-80): 89 % of control
T/C (endpoint: median survival time, dose: 50.0 mg/kg/injection, schedule: Q01DX009 (ip), vehicle: saline with Tween-80): 94 % of control
T/C (endpoint: median survival time, dose: 100.0 mg/kg/injection, schedule: Q01DX009 (ip), vehicle: saline with Tween-80): 100 % of control
T/C (endpoint: median survival time, dose: 200.0 mg/kg/injection, schedule: Q01DX009 (ip), vehicle: saline with Tween-80): 100 % of control
T/C (endpoint: median survival time, dose: 400.0 mg/kg/injection, schedule: Q01DX009 (ip), vehicle: saline with Tween-80): 101 % of control

CC12CC1(C)C(=O)OC2=O (stereo not drawn)
T/C [9]: 96 % of control
T/C [3]: 95 % of control
T/C [5]: 96 % of control

Cn1c(=O)[nH]cc(C2OC(CO)C(O)C2O)c1=O (stereo not drawn)
T/C (endpoint: median survival time, dose: 12.5 mg/kg/injection, schedule: Q01DX005 (ip), vehicle: saline): 103 % of control
T/C (endpoint: median survival time, dose: 25.0 mg/kg/injection, schedule: Q01DX005 (ip), vehicle: saline): 100 % of control
T/C (endpoint: median survival time, dose: 50.0 mg/kg/injection, schedule: Q01DX005 (ip), vehicle: saline): 92 % of control
T/C (endpoint: median survival time, dose: 100.0 mg/kg/injection, schedule: Q01DX005 (ip), vehicle: saline): 100 % of control
T/C (endpoint: median survival time, dose: 200.0 mg/kg/injection, schedule: Q01DX005 (ip), vehicle: saline): 107 % of control

CCN(CC)c1ccc(N)cc1
T/C (endpoint: mean survival time, dose: 5.0 mg/kg/injection, schedule: Q01DX009 (ip), vehicle: saline): 96 % of control
T/C (endpoint: mean survival time, dose: 5.0 mg/kg/injection, schedule: Q04DX003 (ip), vehicle: saline): 96 % of control
T/C (endpoint: mean survival time, dose: 10.0 mg/kg/injection, schedule: Q01DX009 (ip), vehicle: saline): 96 % of control
T/C (endpoint: mean survival time, dose: 10.0 mg/kg/injection, schedule: Q04DX003 (ip), vehicle: saline): 97 % of control
T/C (endpoint: mean survival time, dose: 20.0 mg/kg/injection, schedule: Q01DX009 (ip), vehicle: saline): 100 % of control
T/C (endpoint: mean survival time, dose: 20.0 mg/kg/injection, schedule: Q04DX003 (ip), vehicle: saline): 94 % of control

COC(=O)C12CCc3ccoc3C1CCC1(C)C(C)=CCCC12 (stereo not drawn)
T/C (endpoint: mean survival time, dose: 50.0 mg/kg/injection, schedule: Q04DX002 (ip), vehicle: other): 115 % of control
T/C (endpoint: mean survival time, dose: 100.0 mg/kg/injection, schedule: Q04DX002 (ip), vehicle: other): 107 % of control
T/C (endpoint: mean survival time, dose: 200.0 mg/kg/injection, schedule: Q04DX002 (ip), vehicle: other): 107 % of control

COC(C(=O)C(O)C(C)O)C1CC2C=C3C=C(OC4CC(OC5CC(O)C(OC)C(C)O5)C(OC(C)=O)C(C)O4)C(C)C(=O)C3=C(O)C2=C(O)C1OC1CC(OC2CC(OC3CC(C)(O)C(O)C(C)O3)C(O)C(C)O2)C(O)C(C)O1 (stereo not drawn)
T/C (endpoint: mean survival time, dose: 0.25 mg/kg/injection, schedule: Q01DX009 (ip), vehicle: saline with Tween-80): 92 % of control and 101 % of control and 104 % of control
T/C (endpoint: mean survival time, dose: 0.5 mg/kg/injection, schedule: Q01DX009 (ip), vehicle: saline with Tween-80): 100 % of control and 101 % of control (2×)
T/C [10]: 124 % of control
T/C (endpoint: mean survival time, dose: 1.0 mg/kg/injection, schedule: Q01DX009 (ip), vehicle: saline with Tween-80): 101 % of control and 102 % of control
T/C [11]: 98 % of control
T/C (endpoint: mean survival time, dose: 2.0 mg/kg/injection, schedule: Q01DX009 (ip), vehicle: saline with Tween-80): 121 % of control and 108 % of control
T/C (endpoint: mean survival time, dose: 4.0 mg/kg/injection, schedule: Q01DX009 (ip), vehicle: saline): 115 % of control
T/C (endpoint: mean survival time, dose: 8.0 mg/kg/injection, schedule: Q01DX009 (ip), vehicle: saline with Tween-80): 189 % of control
T/C (endpoint: mean survival time, dose: 8.0 mg/kg/injection, schedule: Q01DX009 (ip), vehicle: saline): 124 % of control

CCCCOC(=O)CCCCC(=O)OCCCC
T/C [3]: 96 % of control
T/C [4]: 97 % of control
T/C [5]: 105 % of control
T/C [6]: 98 % of control
T/C [7]: 110 % of control
T/C [8]: 97 % of control

O=C(N/N=C/c1ccccc1)c1ccc(Cl)c(Cl)c1
T/C [1]: 105 % of control
T/C [2]: 101 % of control
T/C (endpoint: mean survival time, dose: 400.0 mg/kg/injection, schedule: Q01DX009 (ip), vehicle: Klucel (hydroxypropylcellulose) (HPC)): 101 % of control

CCOC(=O)C(C)(C)Oc1nn(Cc2ccccc2)c2ccccc12
T/C (endpoint: mean survival time, dose: 25.0 mg/kg/injection, schedule: Q04DX003 (ip), vehicle: saline with Tween-80): 104 % of control
T/C (endpoint: mean survival time, dose: 50.0 mg/kg/injection, schedule: Q04DX003 (ip), vehicle: saline with Tween-80): 102 % of control
T/C [4]: 102 % of control

O=C(Nc1cc(C(F)(F)F)ccc1Cl)c1cccc(C(=O)Nc2cc(C(F)(F)F)ccc2Cl)c1
T/C (endpoint: mean survival time, dose: 12.5 mg/kg/injection, schedule: Q01DX009 (ip), vehicle: saline with Tween-80): 86 % of control
T/C (endpoint: mean survival time, dose: 25.0 mg/kg/injection, schedule: Q01DX009 (ip), vehicle: saline with Tween-80): 90 % of control
T/C [9]: 92 % of control

COc1cc2c(cc1OC)C(CCN)=NCC2
T/C (endpoint: mean survival time, dose: 25.0 mg/kg/injection, schedule: Q01DX009 (ip), vehicle: saline sonified): 98 % of control
T/C (endpoint: mean survival time, dose: 50.0 mg/kg/injection, schedule: Q01DX009 (ip), vehicle: saline sonified): 98 % of control
T/C (endpoint: mean survival time, dose: 100.0 mg/kg/injection, schedule: Q01DX009 (ip), vehicle: saline sonified): 93 % of control
T/C (endpoint: mean survival time, dose: 100.0 mg/kg/injection, schedule: Q04DX003 (ip), vehicle: saline): 97 % of control

CCOC(=O)Nc1cccnc1
T/C (endpoint: mean survival time, dose: 75.0 mg/kg/injection, schedule: Q01DX001 (ip), vehicle: saline with Tween-80): 104 % of control
T/C (endpoint: mean survival time, dose: 150.0 mg/kg/injection, schedule: Q01DX001 (ip), vehicle: saline with Tween-80): 98 % of control
T/C (endpoint: mean survival time, dose: 300.0 mg/kg/injection, schedule: Q01DX001 (ip), vehicle: saline with Tween-80): 106 % of control

CCCC(C)C1(CC)NC(C)(C)CC(C)O1 (stereo not drawn)
T/C [4]: 103 % of control
T/C [6]: 87 % of control

N=Cc1c(O)n(-c2ccccc2)c(=O)[nH]c1=O
T/C [3]: 101 % of control
T/C [4]: 94 % of control
T/C [5]: 101 % of control
T/C [6]: 92 % of control
T/C [7]: 104 % of control
T/C [8]: 97 % of control

O=NN(CCCCCSCCCl)C(=O)NC1CCCCC1
T/C (endpoint: mean survival time, dose: 6.25 mg/kg/injection, schedule: Q01DX001 (ip), vehicle: distilled water + Tween-80): 101 % of control
T/C (endpoint: mean survival time, dose: 12.5 mg/kg/injection, schedule: Q01DX001 (ip), vehicle: distilled water + Tween-80): 101 % of control
T/C (endpoint: mean survival time, dose: 25.0 mg/kg/injection, schedule: Q01DX001 (ip), vehicle: distilled water + Tween-80): 107 % of control
T/C (endpoint: mean survival time, dose: 50.0 mg/kg/injection, schedule: Q01DX001 (ip), vehicle: distilled water + Tween-80): 104 % of control
T/C (endpoint: mean survival time, dose: 100.0 mg/kg/injection, schedule: Q01DX001 (ip), vehicle: distilled water + Tween-80): 104 % of control
T/C (endpoint: mean survival time, dose: 200.0 mg/kg/injection, schedule: Q01DX001 (ip), vehicle: distilled water + Tween-80): 108 % of control
T/C (endpoint: mean survival time, dose: 400.0 mg/kg/injection, schedule: Q01DX001 (ip), vehicle: distilled water + Tween-80): 118 % of control

C[C@]12CC[C@H](OC3OC(CO)C(O)C(O)C3O)C[C@H]1CC[C@@H]1[C@@H]2CC[C@]2(C)[C@@H](C3=CCOC3=O)CC[C@]12O (stereo partly drawn)
T/C [10]: 110 % of control
T/C [11]: 110 % of control
T/C (endpoint: mean survival time, dose: 2.0 mg/kg/injection, schedule: Q01DX009 (ip), vehicle: saline): 107 % of control
T/C (endpoint: median survival time, dose: 0.5 mg/kg/injection, schedule: Q01DX009 (ip), vehicle: saline): 112 % of control
T/C (endpoint: median survival time, dose: 1.0 mg/kg/injection, schedule: Q01DX009 (ip), vehicle: saline): 108 % of control
T/C (endpoint: median survival time, dose: 2.0 mg/kg/injection, schedule: Q01DX009 (ip), vehicle: saline): 113 % of control
T/C (endpoint: median survival time, dose: 4.0 mg/kg/injection, schedule: Q01DX009 (ip), vehicle: saline): 91 % of control
